Test results reported in the NIST ThermoML archive (doi:10.1021/je900164a).

Assay: xn = mol fraction of the nth substance listed
Settings: 101 kPa, Liquid, Vibrating tube method

CNC(=O)NC [1,3-dimethylurea] + O
mass density [kg/m3]
Settings | 280.15 K | 281.15 K | 282.15 K | 283.15 K | 288.15 K | 298.15 K | 308.15 K
x1 = 0.000898 | – | 1000.29 | 1000.22 | 1000.13 | 999.526 | 997.452 | 994.42
x1 = 0.0018 | – | 1000.73 | 1000.65 | 1000.57 | 999.93 | 997.853 | 994.802
x1 = 0.00448 | – | 1002.06 | 1001.98 | 1001.88 | 1001.23 | 999.058 | 995.947
x1 = 0.00893 | – | 1004.34 | 1004.22 | 1004.12 | 1003.35 | 1001.08 | 997.861
x1 = 0.01771 | – | 1008.91 | 1008.75 | 1008.6 | 1007.67 | 1005.1 | 1001.7
x1 = 0.02461 | – | 1012.56 | 1012.36 | 1012.17 | 1011.04 | 1008.24 | 1004.63
x1 = 0.03141 | – | 1016 | 1015.77 | 1015.58 | 1014.35 | 1011.28 | 1007.43
x1 = 0.03815 | – | 1019.47 | 1019.19 | 1019.01 | 1017.55 | 1014.24 | 1010.16
x1 = 0.04471 | 1023.02 | 1022.79 | 1022.47 | 1022.23 | 1020.59 | 1017.04 | 1012.76
x1 = 0.05126 | 1026.26 | 1025.97 | 1025.61 | 1025.27 | 1023.54 | 1019.75 | 1015.27
x1 = 0.06722 | 1033.52 | 1033.21 | 1032.76 | 1032.44 | 1030.34 | 1025.98 | 1021.16
x1 = 0.08246 | 1040.01 | 1039.61 | 1039.05 | 1038.58 | 1036.44 | 1031.41 | 1026.06
x1 = 0.09755 | 1045.78 | 1045.39 | 1044.75 | 1044.35 | 1041.6 | 1036.31 | 1030.33
